Earlier results on one compound are cited in PMC6547379 (The European respiratory journal, 2018).

In this data set the test system is CF patients. The settings on record: ref [34].

Turning to `Cc1c(-c2ccnn2C)cc(C(=O)NCc2ccc(S(C)(=O)=O)cn2)c(=O)n1-c1cccc(C(F)(F)F)c1` [AZD9668], the “effect on inflammation / lung function in CF patients” value is “no effect on inflammation or lung function”.
